In US20240041715A1, “PROCESS FOR TREATING HUMAN PERSPIRATION AND BODY ODORS USING MAGNESIUM OXIDE AND A PHOSPHATE SALT” (L' OREAL, priority 2020, published 2024):

Assay: in vitro "sniff test" model of deodorant effectiveness using human sweat incubated at 37° C.
Settings: average odor intensity rating, scores from 1=weak odor to 8=very strong odor, single ingredient
Protocol: The deodorant effectiveness of different KH2PO4/MgO mixtures at different molar ratios was studied in vitro in a “sniff test” model using human sweat incubated at 37° C.

| SMILES | Odor intensity |
| --- | --- |
| [O]=[Mg] [MgO, magnesium oxide] | 1 |
| O=P([O-])(O)O.[K+] [KH2PO4, potassium dihydrogen phosphate] | 8 |
